According to BindingDB's records for patent US20230286943 (Sanofi, 2023):

Molecular target: T1, Interleukin-17A (Homo sapiens, UniProt Q16552)
T1 sequence (Q16552 whole entry): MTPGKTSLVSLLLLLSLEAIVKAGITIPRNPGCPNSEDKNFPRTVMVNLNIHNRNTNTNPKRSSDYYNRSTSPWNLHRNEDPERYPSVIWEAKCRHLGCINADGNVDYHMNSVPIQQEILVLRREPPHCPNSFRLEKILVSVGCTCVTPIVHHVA
Assay: AlphaLISA Assay
Description: The ability of the compounds to block binding of IL-17A to its receptor, IL-17RA, was analysed in a competition assay using AlphaLISA technology (Perkin Elmer). The assay is a bead based AlphaLISA where the IL-17RA is captured on the acceptor bead via an Fc tag and IL-17A is captured on the streptavidin donor bead via a biotinylated anti-IL-17A antibody.Assay buffer was prepared by adding 0.05% Tween-20 (v/v) and 0.1% BSA to Phosphate Buffered Saline (PBS). The assay was carried out in 384-well white low volume plates (Corning 4512). 10 μL of a 7.5 nM stock of human recombinant IL-17A (R&D Systems 7955-IL/CF) diluted in assay buffer was dispensed into the assay plate and compounds or DMSO vehicle control were added in a volume of 75 nL using a D300 dispenser (Hewlett Packard). The compounds were pre-incubated with the IL-17A for 24 h at room temperature (or for 30 min, where indicated by * in Table A below) prior to addition of 5 μL of a 5 nM stock of human recombinant IL-17RA/Fc chimera (R&D Systems 177-IR-100) diluted in assay buffer. […] The luminescence signal was measured using an Enspire plate reader (Perkin Elmer) with excitation at 680 nm and emission at 615 nm. Data were analysed using GraphPad Prism and fitted to a 4-parameter logistic equation.

- IC50: 794 nM
Structure (SMILES): Cc1nnc(C)n1-c1ccc(NC(=O)[C@@H](NC(=O)c2ccnn2C)C2CCCCCC2)nc1 [US20230286943, Example 62]
